Results from patent US20230339900A1, “CASEIN KINASE 1 DELTA MODULATORS” (Janssen Pharmaceutica NV, priority 2020, published 2023).
Structures can show the parent of a compound that is named as a salt.

What was measured:
[1] = target: human CSNK1D tagged with nanoluciferase (Homo sapiens (Human), UniProt P48730); assay: Whole Cell nBRET CSNK1D Binding Assay; conditions: living CHO cells stably expressing human CSNK1D-nanoluciferase; NanoBret tracer 130 nM; 2 hours 37° C.; read-out: CSNK1D BRET IC50
Chain of human CSNK1D tagged with nanoluciferase (P48730 whole entry, the tested form may be a part): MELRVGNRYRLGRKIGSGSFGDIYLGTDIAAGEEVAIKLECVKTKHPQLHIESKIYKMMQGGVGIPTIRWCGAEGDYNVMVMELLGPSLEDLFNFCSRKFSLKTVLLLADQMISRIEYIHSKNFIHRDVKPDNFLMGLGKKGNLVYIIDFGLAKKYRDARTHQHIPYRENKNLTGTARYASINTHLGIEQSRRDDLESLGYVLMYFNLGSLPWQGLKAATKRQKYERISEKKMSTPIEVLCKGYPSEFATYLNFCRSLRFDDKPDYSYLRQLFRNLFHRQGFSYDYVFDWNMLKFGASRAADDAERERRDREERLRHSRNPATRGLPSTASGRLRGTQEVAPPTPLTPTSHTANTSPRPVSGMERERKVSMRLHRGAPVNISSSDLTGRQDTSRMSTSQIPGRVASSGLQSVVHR
Summary of the method: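 IC50 values come from milliBRET ratios ((E630/E450)*1000) fitted against log compound concentration. Tracer displacement was run in living CHO cells stably expressing NanoLuc-fused CSNK1D, with dosed compounds and 130 nM tracer incubated 2 h at 37 °C in serum-free OptiMEM before substrate addition and donor/acceptor reading.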

[2] = target: human recombinant GST cleaved CSNK1D (Homo sapiens (Human), UniProt P48730); assay: Purified enzyme assay (ADP-Glo Kinase Assay); assay type: biochemical; conditions: 2 nM CSNK1D, peptide substrate 150 μM, ATP 20 μM, 45 minutes room temperature
Chain of human recombinant GST cleaved CSNK1D (P48730 whole entry): as the sequence (P48730 whole entry, the tested form may be a part) above

| IC50 [1] | AC50 [2] | SMILES |
| --- | --- | --- |
| > 10000 nM | 5360 nM | COc1ccc2c(-c3cn(C)nc3-c3ccc(F)cn3)cc(C)nc2c1 [Example 110, 4-[3-(5-Fluoro-2-pyridyl)-1-methyl-pyrazol-4-yl]-7-methoxy-2-methyl-quinoline] |
| 491 nM | 28 nM | COc1cc2c(-c3cn(C)nc3-c3ccc(F)cn3)ccnc2cc1F [Example 111, 7-Fluoro-4-[3-(5-fluoro-2-pyridyl)-1-methyl-pyrazol-4-yl]-6-methoxy-quinoline] |
| 953 nM | 51 nM | Cn1cc(-c2ccnc3cnccc23)c(-c2ccc(F)cn2)n1 [Example 112, 4-[3-(5-Fluoro-2-pyridyl)-1-methyl-pyrazol-4-yl]-1,7-naphthyridine] |
| > 10000 nM | 144 nM | Cn1cc(-c2ccnc3c2CCNC3)c(-c2ccc(F)cn2)n1 [Example 113, 4-[3-(5-Fluoro-2-pyridyl)-1-methyl-pyrazol-4-yl]-5,6,7,8-tetrahydro-1,7-naphthyridine] |
| 4230 nM | 166 nM | Cn1cc(-c2ccnc3c2CCCN3)c(-c2ccc(F)cn2)n1 [Example 114, 5-[3-(5-Fluoro-2-pyridyl)-1-methyl-pyrazol-4-yl]-1,2,3,4-tetrahydro-1,8-naphthyridine] |
| 315 nM | 9 nM | CC(=O)Nc1cc(-c2cn(C)nc2-c2ccc(F)cn2)ccn1 [Example 115, N-(4-(3-(5-Fluoropyridin-2-yl)-1-methyl-1H-pyrazol-4-yl)pyridin-2-yl)acetamide] |
| 76 nM | 3 nM | Cn1cc(-c2ccnc(NC(=O)C3CC3)c2)c(-c2ccc(F)cn2)n1 [Example 116, N-(4-(3-(5-Fluoropyridin-2-yl)-1-methyl-1H-pyrazol-4-yl)pyridin-2-yl)cyclopropanecarboxamide] |
| 376 nM | 24 nM | Cn1cc(-c2ccnc3ccsc23)c(-c2ccc(F)cn2)n1 [Example 118, 7-(3-(5-Fluoropyridin-2-yl)-1-methyl-1H-pyrazol-4-yl)thieno[3,2-b]pyridine] |
| 32 nM | 2 nM | Cn1cc(-c2cc(N)nc3[nH]ccc23)c(-c2ccc(F)cn2)n1 [Example 119, 4-[3-(5-Fluoro-2-pyridyl)-1-methyl-pyrazol-4-yl]-1H-pyrrolo[2,3-b]pyridin-6-amine] |
| 8710 nM | 31 nM | Cn1cc(-c2ccnc3[nH]cc(CC#N)c23)c(-c2ccc(F)cn2)n1 [Example 120, 2-[4-[3-(5-Fluoro-2-pyridyl)-1-methyl-pyrazol-4-yl]-1H-pyrrolo[2,3-b]pyridin-3-yl]acetonitrile] |
| 1600 nM | 43 nM | CCn1ncc2cc(-c3cn(C)nc3-c3ccc(F)cn3)cnc21 [Example 121, 1-Ethyl-5-[3-(5-fluoro-2-pyridyl)-1-methyl-pyrazol-4-yl]pyrazolo[3,4-b]pyridine] |
| > 10000 nM | 15 nM | CC(C)c1n[nH]c2nccc(-c3cn(C)nc3-c3ccc(F)cn3)c12 [Example 122, 4-[3-(5-Fluoro-2-pyridyl)-1-methyl-pyrazol-4-yl]-3-isopropyl-1H-pyrazolo[3,4-b]pyridine] |
| 234 nM | 4 nM | Cc1nc(-c2cn(C)nc2-c2ccc(F)cn2)c2cc[nH]c2n1 [Example 123, 4-[3-(5-Fluoro-2-pyridyl)-1-methyl-pyrazol-4-yl]-2-methyl-7H-pyrrolo[2,3-d]pyrimidine Trifluoroacetate Salt] |
| 1940 nM | 52 nM | Cc1nc(-c2cn(C)nc2-c2ccc(F)cn2)c2cn[nH]c2n1 [Example 124, 4-[3-(5-Fluoro-2-pyridyl)-1-methyl-pyrazol-4-yl]-6-methyl-1H-pyrazolo[3,4-d]pyrimidine] |
| 1910 nM | 66 nM | Cn1cc(-c2nc(C3CC3)nc3[nH]ccc23)c(-c2ccc(F)cn2)n1 [Example 125, 2-Cyclopropyl-4-[3-(5-fluoro-2-pyridyl)-1-methyl-pyrazol-4-yl]-7H-pyrrolo[2,3-d]pyrimidine] |
| 4620 nM | 26 nM | Cn1cc(-c2ccnc3cccnc23)c(-c2ccc(F)cn2)n1 [Example 126, 4-[3-(5-Fluoro-2-pyridyl)-1-methyl-pyrazol-4-yl]-1,5-naphthyridine] |
| 962 nM | 46 nM | Cn1cc(-c2ccnc3ccc(F)nc23)c(-c2ccc(F)cn2)n1 [Example 127, 2-Fluoro-8-[3-(5-fluoro-2-pyridyl)-1-methyl-pyrazol-4-yl]-1,5-naphthyridine] |
| 103 nM | 11 nM | CCOc1ccc2nccc(-c3cn(C)nc3-c3ccc(F)cn3)c2n1 [Example 128, 2-Ethoxy-8-[3-(5-fluoro-2-pyridyl)-1-methyl-pyrazol-4-yl]-1,5-naphthyridine] |
| 785 nM | 109 nM | COc1ccc2nccc(-c3cn(C)nc3-c3ccc(F)cn3)c2c1 [Example 129, 4-[3-(5-Fluoro-2-pyridyl)-1-methyl-pyrazol-4-yl]-6-methoxy-quinoline] |
| 4480 nM | 310 nM | Cc1ccc2nccc(-c3cn(C)nc3-c3ccc(F)cn3)c2n1 [Example 131, 8-[3-(5-Fluoro-2-pyridyl)-1-methyl-pyrazol-4-yl]-2-methyl-1,5-naphthyridine] |

The next lines start with the compound.

| SMILES | IC50 [1] | AC50 [2] |
| --- | --- | --- |
| Cn1cc(-c2c(C3COC3)cnc3[nH]ccc23)c(-c2ccc(F)cn2)n1 [Example 91, 4-(3-(5-Fluoropyridin-2-yl)-1-methyl-1H-pyrazol-4-yl)-5-(oxetan-3-yl)-1H-pyrrolo[2,3-b]pyridine] | 653 nM | 19 nM |
| Cn1cc(-c2ccnc3[nH]cc(C4COC4)c23)c(-c2ccc(F)cn2)n1 [Example 93, 4-[3-(5-Fluoro-2-pyridyl)-1-methyl-pyrazol-4-yl]-3-(oxetan-3-yl)-1H-pyrrolo[2,3-b]pyridine] | 3660 nM | 123 nM |
| Cn1cc(-c2ccnc3[nH]c(C4(O)COC4)cc23)c(-c2ccc(F)cn2)n1 [Example 94, 3-(4-(3-(5-Fluoropyridin-2-yl)-1-methyl-1H-pyrazol-4-yl)-1H-pyrrolo[2,3-b]pyridin-2-yl)oxetan-3-ol] | 187 nM | 10 nM |
| Cn1cc(-c2c(CC3COC3)cnc3[nH]ccc23)c(-c2ccc(F)cn2)n1 [Example 95, 4-(3-(5-Fluoropyridin-2-yl)-1-methyl-1H-pyrazol-4-yl)-5-(oxetan-3-ylmethyl)-1H-pyrrolo[2,3-b]pyridine] | 376 nM | 2 nM |
| Cn1cc(-c2ccnc3[nH]ncc23)c(-c2ccc(F)cn2)n1 [Example 98, 4-(3-(5-Fluoropyridin-2-yl)-1-methyl-1H-pyrazol-4-yl)-1H-pyrazolo[3,4-b]pyridine] | 2350 nM | 76 nM |
| Cc1cc(-c2cn(C)nc2-c2ccc(F)cn2)c2cn[nH]c2n1 [Example 99, 4-(3-(5-Fluoropyridin-2-yl)-1-methyl-1H-pyrazol-4-yl)-6-methyl-1H-pyrazolo[3,4-b]pyridine] | 238 nM | 11 nM |
| Cc1cc(-c2cn(C)nc2-c2ccc(F)cn2)c2c(C)n[nH]c2n1 [Example 100, 4-[3-(5-Fluoro-2-pyridyl)-1-methyl-pyrazol-4-yl]-3,6-dimethyl-1H-pyrazolo[3,4-b]pyridine] | 197 nM | 12 nM |
| Cn1cc(-c2cc(C3CC3)nc3[nH]ncc23)c(-c2ccc(F)cn2)n1 [Example 101, 6-Cyclopropyl-4-(3-(5-fluoropyridin-2-yl)-1-methyl-1H-pyrazol-4-yl)-1H-pyrazolo[3,4-b]pyridine] | 829 nM | 34 nM |
| Cn1cc(-c2ncnc3[nH]ccc23)c(-c2ccc(F)cn2)n1 [Example 102, 4-(3-(5-Fluoropyridin-2-yl)-1-methyl-1H-pyrazol-4-yl)-7H-pyrrolo[2,3-d]pyrimidine] | 1280 nM | 48 nM |
| COc1ccc2nccc(-c3cn(C)nc3-c3ccc(F)cn3)c2n1 [Example 103, 8-[3-(5-Fluoro-2-pyridyl)-1-methyl-pyrazol-4-yl]-2-methoxy-1,5-naphthyridine] | 147 nM | 10 nM |
| Cn1cc(-c2ccnc3ccccc23)c(-c2ccc(F)cn2)n1 [Example 104, 4-[3-(5-Fluoro-2-pyridyl)-1-methyl-pyrazol-4-yl]quinoline] | 1320 nM | 170 nM |
| Cn1cc(-c2ccnc3cc(Cl)ccc23)c(-c2ccc(F)cn2)n1 [Example 105, 7-Chloro-4-[3-(5-fluoro-2-pyridyl)-1-methyl-pyrazol-4-yl]quinoline] | 817 nM | 25 nM |
| Cn1cc(-c2ccnc3cc(F)ccc23)c(-c2ccc(F)cn2)n1 [Example 106, 7-Fluoro-4-[3-(5-fluoro-2-pyridyl)-1-methyl-pyrazol-4-yl]quinoline] | 564 nM | 39 nM |
| Cn1cc(-c2ccnc3cc(C(F)(F)F)ccc23)c(-c2ccc(F)cn2)n1 [Example 107, 4-[3-(5-Fluoro-2-pyridyl)-1-methyl-pyrazol-4-yl]-7-(trifluoromethyl)quinoline] | 264 nM | 31 nM |
| COc1ccc2c(-c3cn(C)nc3-c3ccc(F)cn3)ccnc2c1 [Example 108, 4-[3-(5-Fluoro-2-pyridyl)-1-methyl-pyrazol-4-yl]-7-methoxy-quinoline] | 373 nM | 13 nM |
| Cn1cc(-c2ccnc3cc(OC(F)(F)F)ccc23)c(-c2ccc(F)cn2)n1 [Example 109, 4-[3-(5-Fluoro-2-pyridyl)-1-methyl-pyrazol-4-yl]-7-(trifluoromethoxy)quinoline] | 468 nM | 41 nM |
| Cn1cc(-c2ccnc3c2CNC3)c(-c2ccc(F)cn2)n1 [Example 117, 4-(3-(5-Fluoropyridin-2-yl)-1-methyl-1H-pyrazol-4-yl)-6,7-dihydro-5H-pyrrolo[3,4-b]pyridine] | > 10000 nM | 101 nM |
